Measurements published in patent publication US6476046B1, “Diazabicyclo[4.3.0]nonanes, and methods of use thereof” (Sepracor, Inc., priority 2000, dated 2002).
Where two headings read alike, the source gives them in different places.

Legend:
human opiate receptor μ = human opiate receptor μ (Homo sapiens, UniProt P35372); test: Radioligand binding assay, human opiate receptor μ
Text: Another assay useful in the present invention concerns determining the ability of a ligand to bind to a biological receptor utilizing a technique well known in the art referred to as a radioligand binding assay. This assay accurately determines the specific binding of a radioligand to a targeted receptor through the delineation of its total and nonspecific binding components. Total binding is defined as the amount of radioligand that remains following the rapid separation of the radioligand bound in a receptor preparation (cell homogenates or recombinate receptors) from that which is unbound. The nonspecific binding component is defined as the amount of radioligand that remains following separation of the reaction mixture consisting of receptor, radioligand and an excess of unlabeled ligand. Under this condition, the only radioligand that remains represents that which is bound to components other that receptor. The specific radioligand bound is determined by subtracting the nonspecific from total radioactivity bound. For a specific example of radioligand binding assay for μ-opioid receptor, see Wang, J. B. et al. FEBS Letters 1994, 338, 217.
(§1) Radioligand Binding Assays (IC50, μM)
(§2) The radiobinding assays for human opiate receptor μ, κ and δ are conducted according the procedures outlined by Maguire et al. (Eur. Pharmacol. 1992, 213, 219).

human opiate receptor κ = human opiate receptor κ (Homo sapiens, UniProt P41145); test: Radioligand binding assay, human opiate receptor κ
Experimental: as §1, §2

human opiate receptor δ = human opiate receptor δ (Homo sapiens, UniProt P41143); test: Radioligand binding assay, human opiate receptor δ
Experimental: as §1, §2

[1] = In vivo analgesia, tail flick model; settings: Rattus norvegicus
Experimental: (§3) Various experimental procedures, well known in the art, are useful in the present invention to assess the analgesic effect of compounds, such as the “tail flick” and “hot plate” tests. The “tail flick” test can be performed by applying a noxious thermal stimulus to the rat's tail and determining the time until the nociceptive tail flick occurs.
(§4) In vivo Analgesia Experiments
The tail flick model was conducted according to D'Amour F. E. and Smith D. L. J. Pharmacol. Exp. Ther. 1941, 72, 74.

[2] = In vivo analgesia, hot plate test; settings: Rattus norvegicus
Text: as §3, §4

[3] = radioligand binding, human opiate receptor μ, read-out: μ (IC50)
[4] = radioligand binding, human opiate receptor κ, read-out: κ (IC50)
[5] = radioligand binding, human opiate receptor δ, read-out: δ (IC50)

Chain of human opiate receptor κ (P41145 whole entry): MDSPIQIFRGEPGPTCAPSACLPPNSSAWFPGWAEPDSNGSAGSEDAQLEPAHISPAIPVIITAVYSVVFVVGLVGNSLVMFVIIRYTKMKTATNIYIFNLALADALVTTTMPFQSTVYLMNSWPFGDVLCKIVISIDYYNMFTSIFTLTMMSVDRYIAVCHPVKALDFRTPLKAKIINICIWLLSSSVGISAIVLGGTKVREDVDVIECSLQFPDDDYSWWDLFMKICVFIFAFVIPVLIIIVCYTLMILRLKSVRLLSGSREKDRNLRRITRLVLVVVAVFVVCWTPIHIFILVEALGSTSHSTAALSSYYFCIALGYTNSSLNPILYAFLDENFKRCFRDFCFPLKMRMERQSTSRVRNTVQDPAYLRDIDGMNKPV
Chain of human opiate receptor μ (P35372 whole entry): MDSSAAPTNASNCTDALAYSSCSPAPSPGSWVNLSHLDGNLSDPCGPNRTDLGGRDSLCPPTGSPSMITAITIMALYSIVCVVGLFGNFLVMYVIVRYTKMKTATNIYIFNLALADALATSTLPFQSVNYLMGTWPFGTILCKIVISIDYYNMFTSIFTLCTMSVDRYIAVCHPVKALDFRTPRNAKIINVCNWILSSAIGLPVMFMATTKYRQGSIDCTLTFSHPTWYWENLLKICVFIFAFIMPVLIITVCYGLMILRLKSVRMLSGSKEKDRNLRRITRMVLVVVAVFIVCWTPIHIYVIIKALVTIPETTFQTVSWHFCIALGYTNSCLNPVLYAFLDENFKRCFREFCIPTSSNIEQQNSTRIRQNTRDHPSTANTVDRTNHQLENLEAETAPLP
Chain of human opiate receptor δ (P41143 whole entry): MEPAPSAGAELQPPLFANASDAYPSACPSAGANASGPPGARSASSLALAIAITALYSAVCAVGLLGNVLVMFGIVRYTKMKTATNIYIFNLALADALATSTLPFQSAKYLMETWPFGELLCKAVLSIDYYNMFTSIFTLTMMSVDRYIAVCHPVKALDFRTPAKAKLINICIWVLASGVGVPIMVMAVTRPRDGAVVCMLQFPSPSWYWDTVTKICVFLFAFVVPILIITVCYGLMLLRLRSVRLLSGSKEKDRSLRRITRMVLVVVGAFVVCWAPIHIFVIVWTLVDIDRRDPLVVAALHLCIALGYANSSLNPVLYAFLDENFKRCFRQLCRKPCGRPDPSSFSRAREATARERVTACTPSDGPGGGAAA

## CCC(=O)N(C[C@@]12CN(CCc3ccccc3)CCC1CN(CCc1ccccc1)C2)c1ccccc1 (single isomer, unassigned) [Compound 37]
Human opiate receptor μ; [3]
  IC50: < 10 nM
Human opiate receptor κ; [4]
  IC50: < 1 µM
Human opiate receptor δ; [5]
  IC50: < 1000 nM
[1]
  ED50: 0.05 mg/kg
[2]
  ED50: 0.06 mg/kg

## CCC(=O)N(C[C@]12CN(CCc3ccccc3)CCC1CN(CCc1ccccc1)C2)c1ccccc1 (single isomer, unassigned) [Compound 38]
Human opiate receptor μ; [3]
  IC50: < 100 nM
Human opiate receptor κ; [4]
  IC50: < 5 µM
Human opiate receptor δ; [5]
  IC50: < 1000 nM
[1]
  ED50: 0.18 mg/kg
[2]
  ED50: 152 mg/kg

## O[C@@H](c1ccccc1)C12CN(CCc3ccccc3)CCC1CN(Cc1ccccc1)C2 (some centres unmarked) [Compound 11]
Human opiate receptor μ; [3]
  IC50: < 1000 nM
Human opiate receptor κ; [4]
  IC50: < 5 µM

## O[C@H](c1ccccc1)C12CN(CCc3ccccc3)CCC1CN(Cc1ccccc1)C2 (some centres unmarked) [Compound 12]
Human opiate receptor μ; [3]
  IC50: < 1000 nM
Human opiate receptor κ; [4]
  IC50: < 5 µM

## COc1cccc(C(O)C23CN(CCc4ccccc4)CCC2CN(Cc2ccccc2)C3)c1 (centres unmarked) [Compound 14]
Human opiate receptor μ; [3]
  IC50: < 1000 nM

## CCC(=O)N(CC12CN(CCc3ccccc3)CCC1CN(Cc1ccccc1)C2)c1ccccc1 (centres unmarked) [Compound 23]
Human opiate receptor μ; [3]
  IC50: < 100 nM
Human opiate receptor κ; [4]
  IC50: < 5 µM
Human opiate receptor δ; [5]
  IC50: < 1000 nM

## CS(=O)(=O)N(CC12CN(CCc3ccccc3)CCC1CN(Cc1ccccc1)C2)c1ccccc1 (centres unmarked) [Compound 25]
Human opiate receptor μ; [3]
  IC50: < 1000 nM
Human opiate receptor κ; [4]
  IC50: < 10 µM

## CCC(=O)N(c1ccccc1)C(C)C12CN(CCc3ccccc3)CCC1CN(Cc1ccccc1)C2 (centres unmarked) [Compound 31]
Human opiate receptor μ
  IC50: < 10 nM
Human opiate receptor κ
  IC50: < 5 µM
Human opiate receptor δ
  IC50: < 1000 nM

## C[C@H](N(C(=O)C1CCC1)c1ccccc1)C12CN(CCc3ccccc3)CCC1CN(Cc1ccccc1)C2 (some centres unmarked) [Compound 32]
Human opiate receptor μ
  IC50: < 100 nM
Human opiate receptor κ
  IC50: < 5 µM
Human opiate receptor δ
  IC50: < 1000 nM

## C[C@@H](N(C(=O)C1CCC1)c1ccccc1)C12CN(CCc3ccccc3)CCC1CN(Cc1ccccc1)C2 (some centres unmarked) [Compound 33]
Human opiate receptor μ
  IC50: < 1000 nM
Human opiate receptor κ
  IC50: < 5 µM
Human opiate receptor δ
  IC50: < 5000 nM

## CCC(=O)N(CC12CN(CCc3ccccc3)CCC1CN(CCc1ccccc1)C2)c1ccccc1 (centres unmarked) [Compound 36]
Human opiate receptor μ
  IC50: < 10 nM
Human opiate receptor κ
  IC50: < 5 µM
Human opiate receptor δ
  IC50: < 1000 nM

## CCC(=O)N(CC12CN(CCc3ccccc3)CCC1CN(C(C)=O)C2)c1ccccc1 (centres unmarked) [Compound 40]
Human opiate receptor μ; [3]
  IC50: < 1000 nM

## CCC(=O)N(CC12CN(CCc3ccccc3)CCC1CN(S(C)(=O)=O)C2)c1ccccc1 (centres unmarked) [Compound 41]
Human opiate receptor μ; [3]
  IC50: < 1000 nM

## CCC(=O)N(CC12CN(C)CC1CCN(CCc1ccccc1)C2)c1ccccc1 (centres unmarked) [Compound 42]
Human opiate receptor μ; [3]
  IC50: < 1000 nM
